Results reported in patent US10717746B2, “Chemical compounds” (ASTRAZENECA AB, priority 2015, dated 2020).

Assays:
CDK9/CycT1 [1] = target: T1, CDK9/CycT1 (Homo sapiens (Human), UniProt P50750); test: CDK9 kinase assay, ATP concentration at Km (mobility shift, Caliper LC3000); assay type: biochemical; conditions: 6 μM ATP, 3 nM CDK9/CycT1; read-out: CDK9 ATP conc. at Km (IC50)
Outline: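 […], compound sat 15 min with enzyme mix: 3 nM CDK9/CycT1, 1.5 µM FITC-GSRTPMY substrate, 6 µM ATP, pH 7.2 HEPES buffer.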

CDK9/CycT1 [2] = target: T1, CDK9/CycT1; test: CDK9 kinase assay, high ATP concentration (5 mM ATP); assay type: biochemical; conditions: 1.5 nM CDK9, read-out: CDK9 High ATP conc. (IC50)
Outline: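 Caliper mobility-shift read-out of phosphorylated vs unphosphorylated FITC-peptide (1.5 μM), giving percent turnover. Final 1.5 nM CDK9/CycT1 and 5 mM ATP in 50 mM HEPES pH 7.2, 1 mM DTT, 10 mM MgCl2; compound preincubated 15 min, reaction 90 min at 25° C, stopped with EDTA.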

[3] = test system: phosphorylation of RNA Polymerase II (RNAPII) at the Ser2 site in MCF7 cells; test: MCF7 pSer2 RNAPII MOA assay (immunofluorescence); assay type: cell-based; conditions: Homo sapiens, MCF7, 6 h, 6-hr treatment, read-out: p-Ser 2 RNAPII (IC50)
Outline: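 Phospho-Ser2 RNAPII was measured by immunofluorescence (Alexa Fluor 488, DAPI counterstain) with plate cytometer read-out. Before staining, cells were fixed with paraformaldehyde and permeabilized with Triton. Exposure was 6 h at 37° C. to CDK9 inhibitors over 7 points (3 μM to 0.004 μM) in MCF7 cells seeded at 2500/well the previous day.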

MV411 cells = test: MV411 caspase activity assay (Caspase-Glo 3/7); assay type: cell-based; conditions: Homo sapiens, MV4-11, 6 h, 6-hr treatment, caspase 3/7 induction
Outline: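 MV411 AML cells (3000/well) were plated overnight, then treated with compound for 6 h at 37 °C. Caspase-3/7 activity was read as luminescence after 30 min with Caspase-Glo 3/7 reagent at room temperature.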

T1 sequence (P50750 whole entry): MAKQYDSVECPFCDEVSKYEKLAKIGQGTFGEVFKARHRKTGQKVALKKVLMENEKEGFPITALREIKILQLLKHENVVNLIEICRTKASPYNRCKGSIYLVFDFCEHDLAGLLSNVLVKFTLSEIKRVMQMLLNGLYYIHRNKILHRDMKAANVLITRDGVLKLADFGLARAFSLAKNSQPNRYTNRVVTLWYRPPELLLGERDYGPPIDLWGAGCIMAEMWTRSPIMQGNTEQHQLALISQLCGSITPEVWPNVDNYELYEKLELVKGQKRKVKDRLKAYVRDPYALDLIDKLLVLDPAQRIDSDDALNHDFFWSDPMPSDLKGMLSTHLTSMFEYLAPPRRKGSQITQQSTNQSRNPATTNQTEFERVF
T1 sequence (O60563 whole entry partner): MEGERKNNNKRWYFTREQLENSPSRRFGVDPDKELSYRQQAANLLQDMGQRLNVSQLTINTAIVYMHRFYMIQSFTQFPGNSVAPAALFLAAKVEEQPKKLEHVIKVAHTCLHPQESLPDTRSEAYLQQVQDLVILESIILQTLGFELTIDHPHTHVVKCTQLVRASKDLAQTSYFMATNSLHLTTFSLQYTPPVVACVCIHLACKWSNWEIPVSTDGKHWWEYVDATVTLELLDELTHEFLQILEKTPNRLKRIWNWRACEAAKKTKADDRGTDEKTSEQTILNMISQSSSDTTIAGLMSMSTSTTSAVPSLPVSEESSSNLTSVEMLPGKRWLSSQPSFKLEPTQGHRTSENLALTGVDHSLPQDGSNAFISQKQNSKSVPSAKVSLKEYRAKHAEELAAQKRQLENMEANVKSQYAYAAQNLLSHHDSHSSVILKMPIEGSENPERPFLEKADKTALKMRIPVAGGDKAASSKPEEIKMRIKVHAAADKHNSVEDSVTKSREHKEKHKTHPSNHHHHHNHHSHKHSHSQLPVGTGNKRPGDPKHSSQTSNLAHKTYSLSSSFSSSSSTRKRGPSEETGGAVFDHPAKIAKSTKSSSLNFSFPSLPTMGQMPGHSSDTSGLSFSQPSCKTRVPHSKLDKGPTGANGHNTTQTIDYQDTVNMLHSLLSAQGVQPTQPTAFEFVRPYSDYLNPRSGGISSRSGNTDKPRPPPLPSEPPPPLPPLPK

IC50 (CDK9/CycT1 [1]) [nM]	IC50 (CDK9/CycT1 [2]) [nM]	IC50 [3] [nM]	IC50 (MV411 cells) [nM]	Compound
28	2130	> 1950	2520	CC(=O)N[C@H]1CCC[C@H](C(=O)Nc2cc(-c3cnn4c3CC(C)(C)C4)c(F)cn2)C1 (relative stereo) [Example 84, (1S,3S)-3-acetamido-N-(4-(5,5-dimethyl-5,6-dihydro-4H-pyrrolo[1,2-b]pyrazol-3-yl)-5-fluoropyridin-2-yl)cyclohexane-1-carboxamide]
< 3	8	48	39	CC(=O)N[C@@H]1CCC[C@H](C(=O)Nc2cc(-c3cnn4c3CC(C)(C)CC4)ccn2)C1 [Example 44, (1S,3R)-3-acetamido-N-(4-(5,5-dimethyl-4,5,6,7-tetrahydropyrazolo[1,5-a]pyridin-3-yl)pyridin-2-yl)cyclohexanecarboxamide]
< 3	17	55	136	O=C(Nc1cc(-c2cnn3c2CCCC3)c(Cl)cn1)[C@H]1CCC[C@@H](NC(=O)C2(O)CC2)C1 [Example 32, (1S,3R)—N-(5-chloro-4-(4,5,6,7-tetrahydropyrazolo[1,5-a]pyridin-3-yl)pyridin-2-yl)-3-(1-hydroxycyclopropanecarboxamido)cyclohexanecarboxamide]
< 3	3	40	15	CC(=O)N[C@@H]1CC[C@H](C(=O)Nc2cc(-c3cnn4c3CC(C)(C)C4)c(Cl)cn2)C1 [Example 48, (1S,3R)-3-acetamido-N-(5-chloro-4-(5,5-dimethyl-5,6-dihydro-4H-pyrrolo[1,2-b]pyrazol-3-yl)pyridin-2-yl)cyclopentanecarboxamide]
4	213	338	543	CC(=O)N[C@@H]1CCC[C@H](C(=O)Nc2cc(-c3cnn4c3CCCC4)c(C)cn2)C1 [Example 77, (1S,3R)-3-acetamido-N-(5-methyl-4-(4,5,6,7-tetrahydropyrazolo[1,5-a]pyridin-3-yl)pyridin-2-yl)cyclohexanecarboxamide]
< 3	62	147	145	CC(=O)N[C@@H]1CCC[C@H](C(=O)Nc2cc(-c3cnn4c3CC(C)(C)C4)c(C#N)cn2)C1 [Example 39, (1S,3R)-3-acetamido-N-(5-cyano-4-(5,5-dimethyl-5,6-dihydro-4H-pyrrolo[1,2-b]pyrazol-3-yl)pyridin-2-yl)cyclohexanecarboxamide]
< 4	22	174	124	CC(=O)N[C@@H]1CCC[C@H](C(=O)Nc2cc(-c3cnn4c3CC(C)(C)C4O)c(Cl)cn2)C1 (stereo partly drawn) [Example 82, (1S,3R)-3-acetamido-N-(5-chloro-4-(6-hydroxy-5,5-dimethyl-5,6-dihydro-4H-pyrrolo[1,2-b]pyrazol-3-yl)pyridin-2-yl)cyclohexane-1-carboxamide]
< 3	< 4	9	12	CC1(C)Cc2c(-c3cc(NC(=O)[C@H]4CCC[C@@H](NC(=O)[C@H]5CCCO5)C4)ncc3Cl)cnn2C1 [Example 46, (R)—N-((1R,3S)-3-((5-chloro-4-(5,5-dimethyl-5,6-dihydro-4H-pyrrolo[1,2-b]pyrazol-3-yl)pyridin-2-yl)carbamoyl)cyclohexyl)tetrahydrofuran-2-carboxamide]
< 3	28	57	67	CC(=O)N[C@@H]1CCC[C@H](C(=O)Nc2cc(-c3cnn4c3CC(C)C4)c(Cl)cn2)C1 (stereo partly drawn) [Example 40, (1S,3R)-3-acetamido-N-(5-chloro-4-(5-methyl-5,6-dihydro-4H-pyrrolo[1,2-b]pyrazol-3-yl)pyridin-2-yl)cyclohexanecarboxamide]
< 3	19	62	99	O=C(N[C@@H]1CCC[C@H](C(=O)Nc2cc(-c3cnn4c3CCCC4)c(Cl)cn2)C1)C1COC1 [Example 67, N-((1R,3S)-3-((5-chloro-4-(4,5,6,7-tetrahydropyrazolo[1,5-a]pyridin-3-yl)pyridin-2-yl)carbamoyl)cyclohexyl)oxetane-3-carboxamide]
< 3	23	92	183	CC(=O)N[C@@H]1CCC[C@H](C(=O)Nc2cc(-c3cnn4c3CCCCC4)c(Cl)cn2)C1 [Example 66, (1S,3R)-3-acetamido-N-(5-chloro-4-(5,6,7,8-tetrahydro-4H-pyrazolo[1,5-a]azepin-3-yl)pyridin-2-yl)cyclohexanecarboxamide]

Continued, compound first:

Compound	IC50 (CDK9/CycT1 [1]) [nM]	IC50 (CDK9/CycT1 [2]) [nM]	IC50 [3] [nM]	IC50 (MV411 cells) [nM]
CC1(C)Cc2c(-c3cc(NC(=O)[C@H]4C[C@@H](O)C4)ncc3Cl)cnn2C1 [Example 27, cis-N-(5-chloro-4-(5,5-dimethyl-5,6-dihydro-4H-pyrrolo[1,2-b]pyrazol-3-yl)pyridin-2-yl)-3-hydroxycyclobutanecarboxamide]	< 3	25	44	38
O=C(Nc1cc(-c2cnn3c2CCCC3)ccn1)[C@H]1C[C@@H](O)C1 [Example 6, cis-3-hydroxy-N-(4-(4,5,6,7-tetrahydropyrazolo[1,5-a]pyridin-3-yl)pyridin-2-yl)cyclobutanecarboxamide]	8	750	460	630
CC(=O)N[C@@H]1CCC[C@H](C(=O)Nc2cc(-c3cnn4c3OCCC4)c(Cl)cn2)C1 [Example 8, (1S,3R)-3-acetamido-N-(5-chloro-4-(6,7-dihydro-5H-pyrazolo[5,1-b][1,3]oxazin-3-yl)pyridin-2-yl)cyclohexanecarboxamide]	< 3	120	690	256
CC(=O)N[C@@H]1CCC[C@H](C(=O)Nc2cc(-c3cnn4c3CC(C)(C)C4)ccn2)C1 [Example 16, (1S,3R)-3-acetamido-N-(4-(5,5-dimethyl-5,6-dihydro-4H-pyrrolo[1,2-b]pyrazol-3-yl)pyridin-2-yl)cyclohexanecarboxamide]	< 3	28	150	100
CC(=O)N[C@@H]1CCC[C@H](C(=O)Nc2cc(-c3cnn4c3CCCC4)ccn2)C1 [Example 3, (1S,3R)-3-acetamido-N-(4-(4,5,6,7-tetrahydropyrazolo[1,5-a]pyridin-3-yl)pyridin-2-yl)cyclohexanecarboxamide]	< 3	210	520	440
CC1(C)Cc2c(-c3ccnc(NC(=O)[C@H]4C[C@@H](O)C4)c3)cnn2C1 [Example 26, cis-N-(4-(5,5-dimethyl-5,6-dihydro-4H-pyrrolo[1,2-b]pyrazol-3-yl)pyridin-2-yl)-3-hydroxycyclobutanecarboxamide]	< 3	93	122	152
O=C(Nc1cc(-c2cnn3c2CCCC3)ncn1)[C@H]1C[C@H](O)C1 [Example 29, trans-3-hydroxy-N-(6-(4,5,6,7-tetrahydropyrazolo[1,5-a]pyridin-3-yl)pyrimidin-4-yl)cyclobutanecarboxamide]	63	7540	> 2630	7220
CC(=O)N[C@@H]1CCC[C@H](C(=O)Nc2cc(-c3cnn4c3COCC4)c(Cl)cn2)C1 [Example 11, (1S,3R)-3-acetamido-N-(5-chloro-4-(6,7-dihydro-4H-pyrazolo[5,1-c][1,4]oxazin-3-yl)pyridin-2-yl)cyclohexanecarboxamide]	11	1200	2700	1930
CC1(C)Cc2c(-c3cc(NC(=O)[C@H]4CCC[C@@H](NC(=O)C5COC5)C4)ncc3Cl)cnn2C1 [Example 19, N-((1R,3S)-3-((5-chloro-4-(5,5-dimethyl-5,6-dihydro-4H-pyrrolo[1,2-b]pyrazol-3-yl)pyridin-2-yl)carbamoyl)cyclohexyl)oxetane-3-carboxamide]	< 3	< 3	13	11
O=C(Nc1cc(-c2cnn3c2CCCC3)c(Cl)cn1)[C@@H]1CCCNC1 [Example 5, (R)—N-(5-chloro-4-(4,5,6,7-tetrahydropyrazolo[1,5-a]pyridin-3-yl)pyridin-2-yl)piperidine-3-carboxamide]	< 4	270	260	160
CC(=O)N[C@@H]1CCC[C@H](C(=O)Nc2cc(-c3cnn4c3CC(C)(C)C4)c(F)cn2)C1 [Example 25, (1S,3R)-3-acetamido-N-(4-(5,5-dimethyl-5,6-dihydro-4H-pyrrolo[1,2-b]pyrazol-3-yl)-5-fluoropyridin-2-yl)cyclohexanecarboxamide]	< 3	4	25	29
